Values after ≈ are worked out from the molar mass of the structure shown. Structures can show the parent of a compound that is named as a salt.
Legend:
[1] = acute oral toxicity against a mouse; conditions: in vivo
[2] = tested on: Chaetomium globosum; experiment: Minimum inhibitory concentration, dilution methods (Example 14); format: cell-based
Text: (§1) Bacteriocidal activity and fungicidal activity of the active compounds of the present invention were examined by potato-dextrose agar dilution method, [2] waxman's liquid medium dilution method or [3] glucose bouillon medium dilution method. The results are shown in Table 4 below as the minimum inhibitory concentration (the minimum concentration of active compound found to produce 100% control of the test bacteria and fungi).

[3] = tested on: Pseudomonas fluorescens; experiment: as above; format: cell-based
Text: as §1

[4] = tested on: Geotrichum candium; experiment: as above; format: cell-based
Text: as §1

[5] = tested on: fungi in the paints or the cutting oil; experiment: Growth of fungi in paints or cutting oil (Example 11); conditions: oil soluble concentrate, 0.1%
Experimental: The above ingredients were mixed. An oil soluble concentrate was obtained. In the form of the oil soluble concentrate, Compound No. 1 was added to paints or the cutting oil in an amount of 0.1%.

[6] = tested on: Fusarium wilt of cucumber; experiment: Exterminating test on Fusarium wilt of cucumber (Experimental Example 4); format: in vivo, Fusarium oxysporum f, cucumerinum; conditions: Fusarium, soil, 336 h, 500 ppm, soil drench 100 ml per pot, two weeks; read-out: Percentage of healthy seedlings
Procedure, shortened: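 Pots of steam-sterilized soil mixed with 20 g infested soil, sown with 18 cucumber seeds (Tokiwazibai), drenched with 100 ml aqueous suspension of 80% wettable powder. Benlate 50% wettable powder run as control. Disease scored two weeks after planting as percentage of healthy seedlings.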

[7] = tested on: Aspergillus niger, Penicillium citrinum, Cladosporium harbarum and chaetomium globosum; experiment: Degree of growth inhibition of fungi on treated beach plates (Example 25); format: cell-based; parameters: scale not given here; conditions: numerical rating, 2 weeks
Procedure, shortened: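 Beech plates 5 cm square and 5 mm thick were dipped for 2 min in emulsifiable concentrate diluted 400- and 800-fold in water, then dried 24 h at room temperature. Plates were set on agar, sprayed with fungal spore suspensions and incubated 2 weeks at 28 °C and 95% humidity; growth inhibition was scored on a numerical rating.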

[8] = tested on: fungi; experiment: Degree of propagation on slime test boards (Example 19); format: cell-based; parameters: key: -: no propagation; +: the area of propagation is 1 - 25% on the slime test boards.; ++: the area of propagation is 26 - 50% on the slime test boards.; +++: the area of propagation is 51 - 75% on the slime test boards.; ++++: the area of propagation is 76 - 100% on the slime test boards
Experimental: (§2) Zero point zero two (0.02) part of active compounds in the form of 10% water soluble concentrate which was prepared by Example 13 was added into 100 parts of Waxman's liquid medium. Pieces of wood and iron (hereafter referred to as the slime test boards) were soaked into the Waxman's liquid medium. The bacteria which were gathered from circular water system were inoculated upon the Waxman's liquid medium and incubated at 27° C-34° C by shaking culture. The degree of propagation of the bacteria on the slime test boards was examined.
(§3) The growth-inhibiting activity of active compounds against the fungi and the green algae was also examined by the same method as mentioned above.
(§4) The degree of propagation of the bacteria, fungi or green algae on the slime test boards is defined in terms of the following symbols.

[9] = tested on: bacteria gathered from circular water system; experiment: as above; format: cell-based; parameters: key: -: no propagation; +: the area of propagation is 1 - 25% on the slime test boards.; ++: the area of propagation is 26 - 50% on the slime test boards.; +++: the area of propagation is 51 - 75% on the slime test boards.; ++++: the area of propagation is 76 - 100% on the slime test boards
Experimental: as §2, §3, §4

[10] = tested on: green algae; experiment: as above; format: cell-based; parameters: key: -: no propagation; +: the area of propagation is 1 - 25% on the slime test boards.; ++: the area of propagation is 26 - 50% on the slime test boards.; +++: the area of propagation is 51 - 75% on the slime test boards.; ++++: the area of propagation is 76 - 100% on the slime test boards
Experimental: as §2, §3, §4

[11] = tested on: Staphylococcus aureus; experiment: Growth inhibition zone around treated cotton cloth (Example 18); format: cell-based; conditions: emulsifiable concentrate diluted 1000 times
Experimental: (§5) The emulsifiable concentrates which were prepared by Example 10 were diluted with water 1000 times to form an emulsion. A cloth of cotton was soaked into each emulsion for 2 minutes. The clothes were dried at room temperature and cut into a square of which a side was 1 cm long. Each kind of test bacteria and fungi was inoculated, separately on plates of potato-agar and one square cloth was placed on each of such plates. Test bacteria and fungi were cultivated at 28° C for 4 days. The width of the region of growth-inhibition which was formed a circumference of the cloth was examined.

[12] = tested on: Penicillium Citrinum; experiment: as above; format: cell-based; conditions: emulsifiable concentrate diluted 1000 times
Experimental: as §5

[13] = tested on: Aspergillus niger; experiment: as above; format: cell-based; conditions: emulsifiable concentrate diluted 1000 times
Experimental: as §5

[14] = tested on: Bacillus subtilis; experiment: as above; format: cell-based; conditions: emulsifiable concentrate diluted 1000 times
Experimental: as §5

[15] = tested on: Aspergillus niger, Penicillium citrinum, Cladosporium harbarum and chaetomium globosum; experiment: Degree of growth inhibition of fungi on treated beach plates (Example 17); format: cell-based; parameters: scale not given here; conditions: numerical rating, 2 weeks
Procedure, shortened: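 Beech plates were dipped for 2 minutes in emulsifiable concentrate diluted 400- and 800-fold in water, then dried for 24 hours. They were laid on agar and sprayed with spores of each fungus, then incubated at 95% humidity and 28° C for 2 weeks. Growth inhibition was scored on a numerical rating scale.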

[16] = (1) potato-dextrose agar dilution method
[17] = (2) waxman's liquid medium dilution method

Molecule O=C(NC=C(Cl)Cl)c1ccccc1O [Compound No. 1, N-(β,β-dichlorovinyl) salicylamide] has an LD50 [1] greater than 6000 mg/kg, an MIC [2, 16] of 5 µg/mL (≈ 21.5 µM) and an MIC [2, 17] of 10 µg/mL (≈ 43.1 µM). The minimum inhibitory concentration [3, 16] was 40 mc g/ml, the MIC ([3]; Pseudomonas fluorescens, (2) waxman's liquid medium dilution method) was 40 µg/mL (≈ 172 µM) and the MIC [4, 16] was 10 µg/mL (≈ 43.1 µM). The MIC [4, 17] was 20 µg/mL (≈ 86.2 µM) and the “growth of fungi in the paints or the cutting oil” value [5] was “controlled”.

With CC(=O)Oc1ccccc1C(=O)NC=C(Cl)Cl [Compound No. 6, O-acetyl-N-(2,2-dichlorovinyl) salicylamide] the pest or weed control at 500 ppm [6] was 83%, the “Degree of growth inhibition” value ([7]; 0.0125 %) was 3 and the “Degree of growth inhibition” value ([7]; 0.025 %) was 3.

For O=C(NC=C(Cl)Cl)c1ccccc1O [Compound No. 20, sodium salt of N-(β,β-dichlorovinyl) salicylamide], the Degree of propagation ([8]; 7th day) was “-”, the Degree of propagation ([8]; 14th day) was “-” and the Degree of propagation ([8]; 21st day) was “-”. The Degree of propagation ([9]; 7th day) was “-”, the Degree of propagation ([9]; 14th day) was “-” and the Degree of propagation ([9]; 21st day) was “-”. The Degree of propagation ([10]; 7th day) was “-”, the Degree of propagation ([10]; 14th day) was “-” and the Degree of propagation ([10]; 21st day) was “-”. The “width of the growth inhibition zone” value [11] was 7 mm, the “width of the growth inhibition zone” value [12] was 7 mm and the “width of the growth inhibition zone” value [13] was 6 mm. For the same molecule, the “width of the growth inhibition zone” value [14] was 8 mm, the “Degree of growth inhibition” value ([15]; 0.0125 %) was 3 and the “Degree of growth inhibition” value ([15]; 0.025 %) was 3.

Source: patent publication US4055640A, “Compositions and methods for controlling the growth of bacteria, fungi and algae using certain derivatives of N-(2,2-dichlorovinyl)salicylamides” (Nippon Kayaku Co., Ltd., priority 1975, dated 1977)
